Measured values from PMC3743763, “Conformational Changes in the Lower Palm Domain of ASIC1a Contribute to Desensitization and RFamide Modulation” (PLoS ONE, 2013).
Numbering of substitutions follows the chain as printed. Residues, ends and D or L forms follow the SMILES beside them. No end group written: not given here.

Tests used:
wildtype human ASIC1a = biological target: T1, wildtype human ASIC1a (Homo sapiens, UniProt P78348); experiment: FRRFa modulation of acid-evoked currents, two-electrode voltage clamp in Xenopus oocytes; type: cell-based
T1 construct: expressed in transfected cells; host or cells: Xenopus laevis oocytes (nuclear injection of pMT3 expression plasmid)
T1 sequence (P78348 1-528): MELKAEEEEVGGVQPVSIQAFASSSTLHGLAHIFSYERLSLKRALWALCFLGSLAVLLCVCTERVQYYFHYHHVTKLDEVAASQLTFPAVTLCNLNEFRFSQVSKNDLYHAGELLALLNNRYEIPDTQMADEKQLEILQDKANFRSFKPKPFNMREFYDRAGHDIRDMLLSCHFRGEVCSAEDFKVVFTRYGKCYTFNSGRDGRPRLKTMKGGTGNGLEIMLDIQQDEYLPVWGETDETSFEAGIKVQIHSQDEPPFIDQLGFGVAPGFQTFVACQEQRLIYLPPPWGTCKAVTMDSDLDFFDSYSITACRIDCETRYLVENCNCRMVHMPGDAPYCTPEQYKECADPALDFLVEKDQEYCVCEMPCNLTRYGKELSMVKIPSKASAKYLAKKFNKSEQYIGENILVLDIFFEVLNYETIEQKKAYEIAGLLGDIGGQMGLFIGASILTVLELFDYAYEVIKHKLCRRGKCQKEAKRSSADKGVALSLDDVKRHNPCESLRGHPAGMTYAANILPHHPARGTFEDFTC
Procedure: (§1) The Stratagene QuikChange® site-directed mutagenesis kit (Cedar Creek, TX) was used to introduce point mutations into the human ASIC1a cDNA (GENBANK accession number NM_001095) within the pMT3 expression vector. Mutations were confirmed by DNA sequencing at the Plant-Microbe Genomics Facility at The Ohio State University and high quality plasmid DNA was prepared for injection using Qiagen (Valencia, CA) Midi prep kits. Female Xenopus laevis were purchased from Xenopus I (Dexter, MI) and Xenopus oocytes were isolated using standard procedures. This work was implemented in accordance with the Guide for the Care and Use of Laboratory Animals of the National Institutes of Health and approved by the Institutional Animal Care and Use Committee of The Ohio State University (protocol # 2009A0161-R1). The oocyte removal surgery was performed under tricaine methanesulfonate (MS222) anesthesia and all efforts were made to minimize suffering. Ovarian lobes were removed and digested for 1.5-2 hours at room temperature with 1.2 mg/ml collagenase in Modified Barth’s solution lacking calcium (24 mM NaHCO3, 88 mM NaCl, 15 mM HEPES, 1 mM KCl, 0.8 mM MgSO4, 125 units/liter penicillin/streptomycin) to separate individual oocytes and remove follicular membranes. Healthy stage IV and V oocytes were selected and maintained in Modified Barth’s solution containing calcium (0.4 mM CaCl2 and 0. 3 mM Ca(NO3)2). The nuclei of isolated oocytes were injected with ~5 ng of a 100 ng/µl stock of wildtype or mutant ASIC1a expression plasmids using a PV820 pneumatic picopump (World Precision Instruments, Sarasota, FL). Oocytes were incubated at 18 °C for 18-96 hours before experiments were performed. […]
(§2) In order to obtain the pH dependence of activation, basal pH was maintained at pH 7.4. […] Peak current amplitude was measured for each test pH and normalized to the average peak amplitude of flanking pH 5.0 currents to minimize the impact of potential tachyphylaxis. […] As before, maximal currents were measured before and after test conditioning pH to minimize the effect of possible tachyphylaxis of proton-gated current. […]

human ASIC1a L280C [1] = biological target: T2, human ASIC1a L280C (Homo sapiens, UniProt P78348, L280C); experiment: FRRFa / FRRF (no amide) modulation of acid-evoked currents, two-electrode voltage clamp in Xenopus oocytes; type: cell-based
T2 construct: expressed in transfected cells; host or cells: Xenopus laevis oocytes (nuclear injection of pMT3 expression plasmid)
T2 sequence (P78348 1-528 L280C): T1 sequence (P78348 1-528) with L280C
Procedure: as §1, §2

wildtype ASIC1a = experiment: MTSET exposure, two-electrode voltage clamp in Xenopus oocytes; type: cell-based, human
Procedure: (§3) The Stratagene QuikChange® site-directed mutagenesis kit (Cedar Creek, TX) was used to introduce point mutations into the human ASIC1a cDNA (GENBANK accession number NM_001095) within the pMT3 expression vector. Mutations were confirmed by DNA sequencing at the Plant-Microbe Genomics Facility at The Ohio State University and high quality plasmid DNA was prepared for injection using Qiagen (Valencia, CA) Midi prep kits. Female Xenopus laevis were purchased from Xenopus I (Dexter, MI) and Xenopus oocytes were isolated using standard procedures. This work was implemented in accordance with the Guide for the Care and Use of Laboratory Animals of the National Institutes of Health and approved by the Institutional Animal Care and Use Committee of The Ohio State University (protocol # 2009A0161-R1). The oocyte removal surgery was performed under tricaine methanesulfonate (MS222) anesthesia and all efforts were made to minimize suffering. Ovarian lobes were removed and digested for 1.5-2 hours at room temperature with 1.2 mg/ml collagenase in Modified Barth’s solution lacking calcium (24 mM NaHCO3, 88 mM NaCl, 15 mM HEPES, 1 mM KCl, 0.8 mM MgSO4, 125 units/liter penicillin/streptomycin) to separate individual oocytes and remove follicular membranes. Healthy stage IV and V oocytes were selected and maintained in Modified Barth’s solution containing calcium (0.4 mM CaCl2 and 0. 3 mM Ca(NO3)2). The nuclei of isolated oocytes were injected with ~5 ng of a 100 ng/µl stock of wildtype or mutant ASIC1a expression plasmids using a PV820 pneumatic picopump (World Precision Instruments, Sarasota, FL). Oocytes were incubated at 18 °C for 18-96 hours before experiments were performed.
The two-electrode voltage clamp technique was used to measure whole cell currents from Xenopus oocytes heterologously expressing ASIC1a channels as described. Electrodes were pulled using a Sutter P-97 micropipette puller (Sutter Instrument Co., Novato, CT) and filled with 3 M KCl (pipette resistance of 0.5–2 MΩ). Oocyte recordings were done in a modified RC-Z3 250 µl oocyte recording chamber (Warner Instruments, Hamden, CT). Data were acquired using an Oocyte Clamp OC-725 Amplifier (Warner Instruments, Hamden, CT) and a Powerlab 4SP digitizer with CHART5 software (ADI Instruments, Colorado Springs, CO). […]
as §2

human ASIC1a L280C [2] = biological target: T2, human ASIC1a L280C; experiment: MTSET modification of the cysteine mutant (residual current read-out), closed vs desensitized state; type: cell-based
Procedure: as §3
The two-electrode voltage clamp technique was used to measure whole cell currents from Xenopus oocytes heterologously expressing ASIC1a channels as described. Electrodes were pulled using a Sutter P-97 micropipette puller (Sutter Instrument Co., Novato, CT) and filled with 3 M KCl (pipette resistance of 0.5–2 MΩ). Oocyte recordings were done in a modified RC-Z3 250 µl oocyte recording chamber (Warner Instruments, Hamden, CT). Data were acquired using an Oocyte Clamp OC-725 Amplifier (Warner Instruments, Hamden, CT) and a Powerlab 4SP digitizer with CHART5 software (ADI Instruments, Colorado Springs, CO). Except where noted, the extracellular solution contained (in mM): 116 NaCl, 2 KCl, 5 HEPES, 5 MES, 2 CaCl2, 1 MgCl2, with pH adjusted using 1N NaOH. The solution exchange rate in the recording chamber was ~1 ml/s. The holding potential was -60 mV unless otherwise noted. [2-(Trimethylammonium)ethyl] Methanethiosulfonate Bromide (MTSET) was purchased from Toronto Research Chemicals, Inc. (Ontario, Canada). FRRFamide peptide (FRRFa) and FRRF (no amide) were synthesized from EZBiolab, Inc. (Westfield, IN).
Oocytes were maintained at a basal pH of 7.4 and maximal currents were established with application of pH 5.0. Currents were allowed to decay for at least 60 s. The control residual current was determined by normalizing the current remaining at 60 s to the peak amplitude (Iresidual/Itransient). After recovery, 300 µM MTSET was applied at pH 7.4 for the indicated duration and excess MTSET was washed away with at least 10 mL of pH 7.4 solution. The pH-dependence of activation and steady-state desensitization were measured as described above. During experiments using MTSET, the effect on residual current decreased slightly over time. […]

human ASIC1a L280C [3] = biological target: T2, human ASIC1a L280C; experiment: Peptide-MTSET competition (MTSET modification in presence of peptide, residual current read-out); type: cell-based
Procedure: The Stratagene QuikChange® site-directed mutagenesis kit (Cedar Creek, TX) was used to introduce point mutations into the human ASIC1a cDNA (GENBANK accession number NM_001095) within the pMT3 expression vector. Mutations were confirmed by DNA sequencing at the Plant-Microbe Genomics Facility at The Ohio State University and high quality plasmid DNA was prepared for injection using Qiagen (Valencia, CA) Midi prep kits. Female Xenopus laevis were purchased from Xenopus I (Dexter, MI) and Xenopus oocytes were isolated using standard procedures. This work was implemented in accordance with the Guide for the Care and Use of Laboratory Animals of the National Institutes of Health and approved by the Institutional Animal Care and Use Committee of The Ohio State University (protocol # 2009A0161-R1). The oocyte removal surgery was performed under tricaine methanesulfonate (MS222) anesthesia and all efforts were made to minimize suffering. […]
Vehicle or 100 µM peptide was applied for 1 minute at pH 7.4. […] Before residual current was measured, oocytes were washed with at least 50 mL of pH 7.4 over 10 minutes in order to remove peptides. […]

[4] = biological target: T3, human ASIC1a L280C (human) (UniProt P78348)
T3 sequence: T1 sequence (P78348 1-528) with L280C

[5] = biological target: T4, human acid-sensing ion channel 1a (hASIC1a), wild type (human) (UniProt P78348)
T4 sequence: T1 sequence (P78348 1-528)

## N=C(N)NCCC[C@H](NC(=O)[C@H](CCCNC(=N)N)NC(=O)[C@@H](N)Cc1ccccc1)C(=O)N[C@@H](Cc1ccccc1)C(N)=O [FRRFa, FRRFamide] (H-FRRF-NH2)
Wildtype human ASIC1a; 100 µM FRRFa vs control, mean ± SEM, n = 14, SEM
  increase in τinact with FRRFamide: 45 ± 6%
Wildtype human ASIC1a; residual current, n = 5, p = 0.69 paired t-test (not significant)
  difference in response between 100µM and 300µM FRRFa: 10.42% ± 11.25
Wildtype human ASIC1a; responses normalized to 100 µM FRRFa, mean ± SEM, n = 6-8, SEM, read-out: EC50 of FRRFa modulation (effect on residual current)
  EC50: 20 ± 4 µM
Human ASIC1a L280C [1]; 100 µM FRRFa vs control, mean ± SEM, n = 17, p = 6x10^-5 vs wildtype, SEM
  increase in τinact with FRRFamide: 131 ± 16%
Human ASIC1a L280C [1]; responses normalized to 100 µM FRRFa, mean ± SEM, n = 6-8, p = 0.34 vs wildtype, SEM, read-out: EC50 of FRRFa modulation (effect on residual current)
  EC50: 14 ± 4 µM

## C[N+](C)(C)CCSS(C)(=O)=O.[Br-] [MTSET, [2-(Trimethylammonium)ethyl] Methanethiosulfonate Bromide]
Wildtype ASIC1a; 300 µM MTSET at pH 7.4, before MTS 0.16 ± 0.05%, n = 3, p = 0.3
  % residual current after MTS: 0.31 ± 0.04%
Wildtype ASIC1a; 300 µM MTSET at pH 7.4, before MTS 1.8 ± 0.2 s, n = 3, p = 0.9
  τinact after MTS: 1.8 ± 0.2 s
Wildtype ASIC1a; 300 µM MTSET, before MTS 1.8 ± 0.7%, n = 3, p = 0.2
  steady-state desensitization, conditioning pH6.7/7.4 after MTS: 1.5 ± 0.6%
Wildtype ASIC1a; 300 µM MTSET, before MTS 66 ± 10%, n = 3, p = 0.7
  activation pH6.5/5.0 after MTS: 62 ± 3%
Human ASIC1a L280C [2]; L280C after MTSET modification, n = 8, p = 0.003 paired t-test
  run down of MTSET effect: decrease in residual current with repeated pH 5.0 applications: 17 ± 5%
Human ASIC1a L280C [2]; L280C after MTSET modification, n = 8, p = 0.01 paired t-test
  run down of MTSET effect: decrease in inactivation rate with repeated pH 5.0 applications: 31 ± 9%
Human ASIC1a L280C [2]; L280C after MTSET modification, n = 8, p = 0.02 paired t-test
  run down of MTSET effect: decrease in peak amplitude with repeated pH 5.0 applications: 5%
Human ASIC1a L280C [2]; L280C closed state, pH 6.8, 5.0 mM Ca2+ conditioning, 300 µM MTSET
  time until MTSET modification observed (increase in residual current): ≤ 2 min
Human ASIC1a L280C [2]; L280C desensitized state, pH 6.8, nominal Ca2+-free conditioning, 300 µM MTSET up to 6 minutes
  MTSET modification in the desensitized state: did not appreciably modify L280C
Human ASIC1a L280C [3]; 300 µM MTSET at pH 7.4 with vehicle
  time until MTSET modulation plateaued in presence of vehicle: 5 min

## FRRF [FRRF (no amide), peptide FRRF lacking the c-terminal amide, used as a control]
Human ASIC1a L280C [1]; 100 µM peptide 1 min at pH 7.4 before pH 5.0, current at 60 s normalized to peak, p = 2x10^-6 vs FRRFa
  residual current (Iresidual/Itransient): 5.6 ± 0.8%
Human ASIC1a L280C [3]; 100 µM peptide + 300 µM MTSET at pH 7.4
  effect of peptide on MTSET modification: did not interfere with MTSET modification

## FRRF-NH2 [FRRFamide peptide]
[4]
  EC50 of FRRFa modulation of the residual current of pH 5.0-evoked currents (two-electrode voltage clamp, Xenopus oocytes; responses normalised to 100 µM FRRFa): 14 µM
[5]
  EC50 of FRRFa modulation of the residual current of pH 5.0-evoked currents (two-electrode voltage clamp, Xenopus oocytes; responses normalised to 100 µM FRRFa): 20 µM
